Like-named read-outs stand apart in the source and are kept apart here.

The subject of data set [1] is HOC 8 human ovarian xenograft. As to the kind of experiment: Survival of mice bearing intraperitoneal HOC 8 xenograft. It is filed as in vivo. An excerpt: In ovarian carcinoma patients the tumor spreads into the peritoneal cavity. Therefore to mimic clinical disease we have selected a human ovarian xenograft, HOC 8, which was transplanted intraperitoneally from ascites and disseminated in the peritoneal cavity.
When the two drugs were combined the effect was much greater than that of each drug given as single agent with a dramatic increase in survival. […] Three animals were still alive after 12 months, two of them belonging to the group receiving the high ET-743 dose. They were sacrificed and a detailed macroscopic and microscopic pathological evaluation was performed. The mouse belonging to the group receiving the low ET-743 dose was apparently cured as the microscopic analysis of liver, splen, pancreas, bone marrow, diagram, ovary uterus omentum and several lymphnodes were negative.

The nature of data set [2]: Toxicity of single i.v. doses of ET-743, DDP and their combination in xenograft experiments. The class given is in vivo. The note with it: drug alone.
Procedure: For the administration of the drugs appropriate vehicles were injected, using the same schedule and route of injection as the drug therapies. […] In xenografts transplanted s.c. tumor growth was monitored and tumor weight (TW) was determined by measuring the tumor diameters with a Vernier caliper every 2-4 days and using the formula TW=d^2×D/2 (where d and D represent the shortest and the longest diameter respectively).
Data set [3] can be described thus: Toxicity (body weight loss, toxic deaths) of split dose Q4×3. It is filed as in vivo. The note with it: Q4×3, 1A9 xenograft experiment.
The nature of data set [4]: Dose finding trial ET-743 day 1 & 8 followed by cisplatin: toxicity. It is filed as in vivo, human. The protocol: We designed a multicenter dose finding trial, […], with escalating doses of ET given as a 3-hr infusion with steroids and antiemetic prophylaxis, followed 30 minutes later by 1 hr infusion cisplatin at a fixed dose of 40 mg/m^2, with 2 L NS hydration.
(§1) 36 patients were entered (15 with ovarian cancer, 6 with uterus cancer, 14 with soft tissue sarcoma, 1 with other tumor type). Prior treatments of the patients were the following:
ET-743 doses levels were 300, 400, 500, 600 and 700 μg/m^2/day; 3-6 were treated per dose level according to toxicity.
ET-743 escalation was uneventful until 500 μg/m^2; at 600 μg/m^2 patients were accrued in 2 separate risk cohort according to prior chemotherapy extent: low risk 1 regimen (LR); high risk ≧2 regimens (HR).

In data set [5] the test system is Ovary, STS gyn, Uterus tumors. Description: Dose finding trial ET-743 day 1 & 8 followed by cisplatin: observed efficacy. The class given is in vivo, human. The protocol: We designed a multicenter dose finding trial, on a day 1 & 8 every 3 weeks schedule, with escalating doses of ET given as a 3-hr infusion with steroids and antiemetic prophylaxis, followed 30 minutes later by 1 hr infusion cisplatin at a fixed dose of 40 mg/m^2, with 2 L NS hydration.
as §1
The following table illustrates the observed efficacy: […]

Data set [6] is classed as in vivo, human. The conditions noted are these: ET-743 with carboplatin at a fixed target (300 mg/m^2), cycle 1 data from 11 patients. The protocol: We designed a multicenter dose finding trial, on a day 1 every 3 weeks schedule, with carboplatin given at a fixed dose of 300 mg/m^2 as a 1 hour infusion followed by escalating doses of ET given as a 3 hours infusion with steroids and antiemetic prophylaxis.
11 patients were entered (6 with ovarian cancer, 1 with lung cancer, 4 with soft tissue sarcoma). Prior treatments of the patients were the following:
ET-743 doses levels were 500, 650 and 800 μg/m^2/day; 3-6 pts were treated per dose level according to toxicity.
The maximum tolerated dose (MTD) was defined as the highest dose level tested of the combination at which at least 2 patients experience a DLT in cycle 1. If one patient encountered drug-induced DLT during either cycle 1 or 2, up to a maximum of 6 patients could be treated at that level. If DLT was not observed in the additional patients, new patients could be treated at the next higher dose level.

The subject of data set [7] is human, murine and canine progenitor cells. The conditions noted are these: cited from earlier work.

As a reminder, the ILS is the gain in survival time of treated over control animals, in per cent. In turn, `N.N.[Cl][Pt][Cl]` [DDP, cis-diaminedichloroplatinum (II), reference compound] had an ILS in data set [1] (DDP monotherapy) of 139%.

`COc1cc2c(cc1O)CCN[C@]21CS[C@@H]2c3c(OC(C)=O)c(C)c4c(c3[C@H](COC1=O)N1C2[C@H]2c3c(cc(C)c(OC)c3O)C[C@@H]([C@@H]1O)N2C)OCO4` (some centres unmarked) [ET-743, ecteinascidin-743]: the “maximal single i.v. dose that caused no toxic death” value in data set [2] amounted to 0.2 mg/kg. Further, in data set [3], the “mean body weight loss” value is 14%. The ILS turned out to be 23% in data set [1] (ET-743 0.15 mg/kg, Q4×3, monotherapy) and 21% in data set [1] (ET-743 0.05% (printed), Q4×3, monotherapy). For the same molecule, the MTD is given as 700 μg/m^2 in data set [4] (ET-743 with cisplatin 40 mg/m^2, previously treated patients, day 1 & 8 every 4 weeks) and 800 μg/m^2 in data set [6]. Further, the “Recommended dose (RD)” value in data set [4] (human, in vivo) is reported as 500 μg/m^2. For the same molecule, the TTP in data set [5] (patient: Ovary, prior carboplatin + taxol (NC), topotecan (PD), ET-743 400 μg/m^2 D 1&8 + cisplatin, Lung) is 6 mos; in data set [5] (patient: Ovary, prior carboplatin + taxol (NE), paclitaxel (PD), ET-743 600 μg/m^2 D 1&8 + cisplatin, Pelvis, liver), 6+ mos; in data set [5] (patient: STS gyn, prior adriamycin/ifosfamide (AD), ET-743 700 μg/m^2 D 1&8 + cisplatin, Lung) it was 3+ mos; in data set [5] (patient: STS-gyn, prior epirubicin + ifosfamide (AD), gemcitabine (PD), ET-743 500 μg/m^2 D 1&8 + cisplatin, Abdomen), 5+ mos; in data set [5] (patient: Uterus Colon, prior carboplatin (NE), taxol + epirubicin + cisplatin (CR), ET-743 400 μg/m^2 D 1&8 + cisplatin, Bone, Pelvis, Lung), 1 mos. Further, the “BEST RESP” value in data set [5] (patient: Ovary, prior carboplatin + taxol (PR), ET-743 600 μg/m^2 D 1&8 + cisplatin, Liver Abdomen) was “Unc PR”; in data set [5] (patient: STS-gyn, prior epirubicin + ifosfamide (AD), gemcitabine (PD), ET-743 500 μg/m^2 D 1&8 + cisplatin, Abdomen, wrapped cell reads Radiological PR non measurable lesions), “Radiological”; in data set [5] (patient: Uterus Colon, prior carboplatin (NE), taxol + epirubicin + cisplatin (CR), ET-743 400 μg/m^2 D 1&8 + cisplatin, Bone, Pelvis, Lung, wrapped cell reads Radiological PR non measurable lesions), “Radiological”. Also, the “sensitivity of hematopoietic progenitors” value in data set [7] was “equal sensitivity of erythropoid and myeloid cells”.
